Experimental data as given in patent US20230025280A1, “PH RESPONSIVE COMPOSITIONS, FORMULATIONS, AND METHODS OF IMAGING A TUMOR” (ONCONANO MEDICINE, INC, priority 2019, published 2023).
“And” between values parts separate entries of the source, which are not always exact repeats. Equal values may be shown once.

Test system: solid cancers (HNSCC, breast cancer, esophageal cancer, or colorectal cancer)
Assay: Intraoperative fluorescence imaging of tumors (in vivo and back table; MFI, CNR, TBR)
Design: species or system human
Details: for In Vivo CNR / In Vivo TBR: per patient, open field cameras; for Patient tumors showing Compound 1 fluorescence intraoperatively: 0.1 to 1.2 mg/kg, 24±8 h post dose; for Tumors visualized intraoperatively by Compound 1 fluorescence / Tumors that could not be visualized intraoperatively: Phase 1 overall
Description: During surgery, intraoperative images of Compound 1 fluorescence were obtained from the primary tumors and metastatic lymph nodes as well as the surrounding tissue which include normal noncancerous tissues using NIR camera(s). This may be in vivo and/or ex vivo imaging of resected specimens. If the surgeon considered it safe, up to a maximum of 10 study related biopsies were taken from the regions with Compound 1 fluorescence that were otherwise not suspected as tumor clinically. Feasibility to image tumors with Compound 1 using multiple NIR cameras was evaluated.
Intraoperative images and videos of “open surgery” were obtained using either the NOVADAQ SPY Elite or the SurgVision Explorer Air. The distance of the camera to the tumor was approximately 20 cm for the Explorer Air and 30 cm for the NOVADAQ SPY, according to manual instructions. The NOVADAQ SPY camera was only able to make fluorescent videos, which could be converted to images during post-processing. The settings for raw data acquisition for this camera were fixed. For the Explorer Air, attempt was made to use the same settings (exposure time and gain) for each patient to allow direct comparison between the images obtained from both the systems, however, depending on the amount of fluorescence visible during surgery, adjustments were needed in some cases due to saturation of the camera system. In some patients, the Olympus NIR laparoscope and Da Vinci Firefly camera systems were used when no open surgery was performed. Systems were used according to the manufacturer's manual.
First, pre-excision fluorescence images and/or movies of the tumor and surrounding areas were made. After surgical excision, images of the wound bed were obtained. In cases where a fluorescence region was visible in the wound bed, a biopsy was taken when feasible, and the excised specimen imaged on all sides on the back table in the operating room. If applicable, lymph nodes were imaged when possible in situ and on the back table, after which the wound bed of the lymph node dissection was imaged again.
Designated imaging study staff performed fluorescence imaging. The surgeon was blinded to the pre-excision imaging to avoid any bias on standard surgery, but was able to look at a second monitor for white-light images while performing the surgical procedure. The surgeon assisted in the wound bed and back table imaging. During the imaging procedure, the ambient light in the surgical theatre was switched off to prevent possible interaction with the fluorescence imaging procedure itself.
Images were processed using Fiji (ImageJ, version 2.0.0). Images were scaled on a per-patient basis, based on the maximum and minimum fluorescent intensity per pixel.
Immediately after excision, the whole specimen was imaged on all 6 resection planes (e.g., frontal, dorsal, lateral, medial, caudal and cranial) using both the designated intraoperative camera system as well as the LI-COR PEARL® Trilogy system within a maximum duration of 60 minutes after surgical excision of the specimen (intraoperative back table imaging). […] Specimens were inked with blue and black ink to mark resection planes.
A macroscopic correlation between visible white light of the tumor areas and corresponding fluorescence images was made. After drawing ROIs containing macroscopic tumor and ROIs containing background, MFI of both tumor and background areas were calculated. Fluorescence ratios (CNR, TBR) were calculated on a per patient basis (3 measurements per patient) following the calculations described above.

For “PEO90-140-b-P(DBA60-150-r-ICG0-3-r-AMA0-3) [Compound 1]”, the “In Vivo CNR” value (0.1 mg/kg, HNSCC) was 2.9 and 21.5 and 3.3, the “In Vivo TBR” value (0.1 mg/kg, HNSCC) was 1.7 (2×) and 5.7 and the “In Vivo CNR” value (0.5 mg/kg, BC) was 2.5. The “In Vivo TBR” value (0.5 mg/kg, BC) was 1.6, the “In Vivo CNR” value (0.5 mg/kg, HNSCC) was 17.3 and 29.3 and the “In Vivo TBR” value (0.5 mg/kg, HNSCC) was 3.3 and 5.0. The “In Vivo CNR” value (0.8 mg/kg, BC) was 12.7, the “In Vivo TBR” value (0.8 mg/kg, BC) was 3.7 and the “In Vivo CNR” value (0.8 mg/kg, HNSCC) was 4.1. For the same substance, the “In Vivo TBR” value (0.8 mg/kg, HNSCC) was 2.7, the “Patients for whom in vivo (intraoperative) imaging was feasible” value (1.2 mg/kg, Phase 1a and 1b, all tumor types) was 11 of 18 and 11 of the 18 and the “Patients for whom in vivo imaging was feasible” value (1.2 mg/kg, BC) was 3 of 5. The “In Vivo CNR” value (1.2 mg/kg, BC) was 7.8 and 9.2 and 1.3, the “In Vivo TBR” value (1.2 mg/kg, BC) was 3.9 and 3.4 and 1.2 and the “Patients for whom in vivo imaging was feasible” value (1.2 mg/kg, CRC) was 1 of 3. The “In Vivo CNR” value (1.2 mg/kg, CRC) was 7.4, the “In Vivo TBR” value (1.2 mg/kg, CRC) was 2.4 and the “Patients for whom in vivo imaging was feasible” value (1.2 mg/kg, EC) was 0 of 3. For the same substance, the “Patients for whom in vivo imaging was feasible” value (1.2 mg/kg, HNSCC) was 7 of 7, the “In Vivo CNR” value (1.2 mg/kg, HNSCC) was 28.7 and 5.8 and 20.8 and 29.9 and 3.4 and 2.8 and 3.5 and the “In Vivo TBR” value (1.2 mg/kg, HNSCC) was 4.7 and 2.1 and 2.9 and 5.4 and 2.3 and 1.8 and 2.7. For the same substance, the “Median in vivo TBR” value (1.2 mg/kg, mucosal tumors (HNSCC), interquartile range of 1.4) was 2.6, the “Median in vivo CNR” value (1.2 mg/kg, mucosal tumors (HNSCC), interquartile range of 17.6) was 5.6 and the “Patients in whom fluorescence imaging was feasible (patients with viable tumors)” value (Phase 1, all 4 tumor types) was 29 out of 30. For the same substance, the “Patient tumors showing Compound 1 fluorescence intraoperatively” value (Phase 1a, BC) was “Two of the 7 and 2 of 7”, the “Patient tumors showing Compound 1 fluorescence intraoperatively” value (Phase 1a, HNSCC) was 8 and 8 of 8 and the “CNR and TBR values” (Phase 1a, in vivo tumor and postoperative specimen fluorescence) was 2-15. For the same substance, the “Intraoperative detection of intraluminal EC tumors” value (Phase 1b, 3 EC tumors, extraluminal imaging, 1.2 mg/kg) was “not detected”, the “Patient tumors in which Compound 1 fluoresced intraoperatively” value (Phase 1b, BC, 1.2 mg/kg) was 3 of 4 and the “Patient tumors in which Compound 1 fluoresced intraoperatively” value (Phase 1b, CRC, 1.2 mg/kg) was 2 of 3. The “Patient tumors in which Compound 1 fluoresced intraoperatively” value (Phase 1b, HNSCC, 1.2 mg/kg) was 5 of 5, the “Patient tumors in which Compound 1 fluoresced intraoperatively” value (Phase 1b, all tumor types, 1.2 mg/kg) was 10/15 and the “Tumors visualized intraoperatively by Compound 1 fluorescence” value (shortened to “Tumors visualized intraoperatively”) (CRC) was 2 of 3. The “Tumors that could not be visualized intraoperatively” value (CRC (distant rectal tumor)) was 1 of 3, the “Tumors visualized intraoperatively” value (HNSCC) was 13 and the “Tumors that could not be visualized intraoperatively” value (deeper seated BC) was 6 of 11. The “Tumors that could not be visualized intraoperatively” value (intraluminal EC) was 2 of 3, the “Tumors visualized intraoperatively” value (superficially seated BC) was 5 of 11 and the “Intraoperative TBR and CNR values” (all patients with feasible intraoperative imaging) was “high”.
